Source: patent US20230390298A1, “METHOD AND COMPOSITIONS FOR USE IN PROVIDING MALE CONTRACEPTION” (Eppin Pharma, Inc., priority 2022, published 2023)
One block for each molecule: values may come before it.

Tests used:
recombinant human EPPIN = biological target: T1, recombinant human EPPIN (Homo sapiens, UniProt O95925); assay: Epitope ALPHA (AlphaScreen) assay, EPPIN / anti-EPPIN antibody binding; details: EPPIN on donor beads, anti-EPPIN antibody on acceptor beads
T1 construct: made in house; host or cells: E. coli strain OrigamiB-DE3-pLysS
Excerpt: Two assays for high throughput screening (HTS) of compounds have been established and validated. In one embodiment, these assays are based on an adaptation of the AlphaScreen™ assay developed by PerkinElmer (Waltham, MA). In the AlphaScreen™ (amplified luminescent proximity homogeneous assay) assay donor and acceptor beads (˜200 nm) are employed to hold interacting protein molecules. When the interacting protein molecules bind (for example EPPIN {on the donor bead} and anti-EPPIN {on the acceptor bead}), single state oxygen molecules diffuse from the donor bead to the acceptor bead (˜4 μsec) and fluorophores subsequently emit light at 520-620 nm. In the primary compound screen, histidine-tagged recombinant human EPPIN is attached to NTA-donor beads and anti-EPPIN (S21C; against the EPPIN C-terminal domain) is attached to protein A-acceptor beads. This epitope specific assay gives strong and stable binding between EPPIN and the antibody.
Briefly, recombinant histidine-tagged recombinant EPPIN was pre-incubated with Ni-NTA chelate donor beads (catalog number AS101, Perkin Elmer, Waltham MA) and anti-Eppin 007 or anti-Eppin Q20E antibody was pre-incubated with Protein A acceptor beads (catalog number 6760136, Perkin Elmer, Waltham MA) for 30 minutes. Equal volumes of donor and acceptor bead mixtures were pipetted into white opaque 384-well microplates (OptiPlate-384; PerkinElmer, Waltham, MA) in a final volume of 30 μL. Plates were covered with top seal and transferred to a Synergy HTS Multiplatform automated plate reader (Biotek, Winooski, VT). After shaking for 2 min, plates were read with an excitation 680/30 filter, an emission 570/100 filter and data acquired using Gen5 software (Biotek). Each set of samples was pipetted in 4 replicates. The final concentration of assay components was 58 nM EPPIN, 2 nM anti-Eppin 007 or Q20E antibody, 5 μg/ml donor beads and 10 μg/ml acceptor beads in 0.1M Tris pH=8, 0.1% bovine serum albumin and 0.01% Tween-20. Negative controls were performed under the same conditions in the absence of EPPIN or antibody and in the presence of beads only. The antibody 007 used in this assay binds the same epitope that binds the EP055 compound so the two entities compete for binding to EPPIN. Q20E binds the n-terminal part of EPPIN.
Non-specific interactions of compound with assay components were measured at the same time with the IgG detection kit ([…] biotinylated rabbit IgG) to generate the bead interaction: 10 μg/ml donor and acceptor beads. (catalog number 6760617C, Perkin Elmer).
A specific signal for each time point was calculated by subtracting the background signal (obtained in the absence of Eppin) from its respective total signal. EC50 values for the binding of EPPIN to specific compounds were calculated by non-linear regression curve fitting using the specific signal obtained after 16 h of incubation using GraphPad Prism version 6.00 for Windows (GraphPad Software, La Jolla California USA, www.graphpad.com).

human sperm motility = assay: live sperm computer-assisted sperm analysis (CASA) assay; assay type: cell-based; details: for inhibitory activity in the CASA sperm motility assay: human spermatozoa
Experimental: In another embodiment, a computer-assisted sperm analysis (CASA) can be used as a live cell compound screen for determining the effect of compounds on human sperm motility. Additionally, to facilitate the EC50 evaluation of compounds using different ejaculates, reducing inter-assay variation due to differences in sperm quality in different semen samples, an index of relative motility inhibition (RMI) was developed. This is calculated as: RMI=[% motility*VSL]; percentage of motile sperm (% motility) or the percentage of progressively motile sperm (% progressive motility, RPMI) multiplied by the straight-line velocity (VSL); the average velocity measured in a straight line from the beginning to the end of a track in μm/sec. Normalized RMI can be calculated by dividing the RMI of each experimental condition by its respective DMSO control.
The live-sperm Computer Assisted Sperm Analysis (CASA) Assays were done as follows.
Human semen samples were obtained from the Department of Obstetrics and Gynecology, University of North Carolina Memorial Hospital, Chapel Hill, NC. […] Semen samples were allowed to liquefy for 30 minutes and subjected to standard semen analysis to determine acceptability before freezing. All samples were stored in liquid nitrogen, and de-identified by the Department of Obstetrics and Gynecology, University of North Carolina Memorial Hospital, Chapel Hill, NC before further processing. A density gradient (SpermCare catalog number 2221 and 2222, InvitroCare Inc., Frederick MD) was used to prepare spermatozoa for further analysis. At least 3 independent experiments were done per assay, each using several pooled samples from a single donor. Briefly sperm were washed after the density gradient with EP buffer-0.4% human serum albumin and resuspended in the same buffer for compound treatments. Sperm were diluted to 5×10^6/mL in 12×75 mm glass tubes with the appropriate treatment and incubated at 37° C. in 5% CO2. For CASA analysis, sperm were loaded onto slides (CellVison 4 chamber (20 μM), catalog number CV-1020-4CV, Fertility Technology Resources, Murphy NC) and warmed to 37° C. before analysis. Videos of sperm motility were collected using a Nikon ECLIPSE TS2-FL inverted microscope with 10× eyepiece and a 10× negative phase contrast objective and a Basler high speed camera (1280×1024 px, 200 fps, USB 3, CMOS). AVI Videos were analyzed using OpenCASA software (version 2). Units for CASA parameters are as follows: VAP (average path velocity), VSL (straight line velocity), and VCL (curvilinear velocity)=μm/sec (microns/sec); ALH (lateral head amplitude)=μm; BCF (beat cross-frequency)=Hz. The relative mobility index (RMI) is a measure of the effect of compound on sperm and is calculated as the VSL x % normal motility and normalized to the appropriate DMSO control.

T1 sequence (O95925 22-133): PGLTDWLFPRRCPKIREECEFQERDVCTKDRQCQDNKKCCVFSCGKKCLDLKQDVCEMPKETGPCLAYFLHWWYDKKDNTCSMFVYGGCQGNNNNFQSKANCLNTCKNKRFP

Molecule: COC(=O)NNc1nc(Nc2ccc(NC(C)=O)c(O)c2)nc(SCCCC(=O)O)n1 [EP096, 4-((4-((4-acetamido-3-hydroxyphenyl)amino)-6-(2(methoxycarbonyl)hydrazineyl)-1,3,5-triazin-2-yl)thio)butanoic acid]
- inhibitory activity in the epitope ALPHA assay (recombinant human EPPIN): inhibitory activity
- inhibitory activity in the CASA sperm motility assay (human sperm motility): inhibitory activity

Molecule: COC(=O)CCSc1nc(NNC(=O)OC)nc(Nc2ccc(NC(C)=O)c(O)c2)n1 [EP082, methyl 3-({4-[(4-acetamido-3-hydroxyphenyl)amino]-6-{[(methoxycarbonyl)amino]amino}-1,3,5-triazin-2-yl}sulfanyl)propanoate]
- inhibitory activity in the epitope ALPHA assay (recombinant human EPPIN): inhibitory activity
- inhibitory activity in the CASA sperm motility assay (human sperm motility): inhibitory activity

Molecule: COC(=O)CCSc1cc(NNC(=O)OC)cc(Cc2ccc(CC(C)=O)c(O)c2)n1 [EP101, methyl 3-[(6-{[3-hydroxy-4-(2-oxopropyl)phenyl]methyl}-4-{[(methoxycarbonyl)amino]amino}pyridin-2-yl)sulfanyl]propanoate]
- inhibitory activity in the epitope ALPHA assay (recombinant human EPPIN): inhibitory activity
- inhibitory activity in the CASA sperm motility assay (human sperm motility): inhibitory activity

Molecule: COC(=O)NNc1nc(Nc2ccc(NC(C)=O)c(O)c2)nc(SCCC(C)=O)n1 [EP091, methyl 2-(4-((4-acetamido-3-hydroxyphenyl)amino)-6-((3-oxobutyl)thio)-1,3,5-triazin-2-yl) hydrazine-1-carboxylate]
- inhibitory activity in the epitope ALPHA assay (recombinant human EPPIN): inhibitory activity
- inhibitory activity in the CASA sperm motility assay (human sperm motility): inhibitory activity

Molecule: COC(=O)CCSc1cc(NNC(=O)OC)nc(Cc2ccc(NC(C)=O)c(O)c2)n1 [EP100, methyl 3-({2-[(4-acetamido-3-hydroxyphenyl)methyl]-6-{[(methoxycarbonyl)amino]amino}pyrimidin-4-yl}sulfanyl)propanoate]
- inhibitory activity in the epitope ALPHA assay (recombinant human EPPIN): inhibitory activity
- inhibitory activity in the CASA sperm motility assay (human sperm motility): inhibitory activity

Molecule: COC(=O)NNc1nc(Nc2ccc(NC(C)=O)c(O)c2)nc(SCCC(=O)O)n1 [EP083, 3-((4-((4-acetamido-3-hydroxyphenyl)amino)-6-(2-(methoxycarbonyl)hydrazineyl)-1,3,5-triazin-2-yl)thio)propanoic acid]
- inhibitory activity in the epitope ALPHA assay (recombinant human EPPIN): inhibitory activity
- inhibitory activity in the CASA sperm motility assay (human sperm motility): inhibitory activity

Molecule: COC(=O)CCCSc1nc(NNC(=O)OC)nc(Nc2ccc(NC(C)=O)c(O)c2)n1 [EP098, methyl 4-({4-[(4-acetamido-3-hydroxyphenyl)amino]-6-{[(methoxycarbonyl)amino]amino}-1,3,5-triazin-2-yl}sulfanyl)butanoate]
- inhibitory activity in the epitope ALPHA assay (recombinant human EPPIN): inhibitory activity
- inhibitory activity in the CASA sperm motility assay (human sperm motility): inhibitory activity

More lines, main results first:

- inhibitory activity in the epitope ALPHA assay (recombinant human EPPIN): inhibitory activity
Molecule: CO/N=C/c1ccc(Cc2cc(NNC(=O)OC)cc(SCCC(=O)OC)n2)cc1O [EP103, methyl 3-{[6-({3-hydroxy-4-[(1E)-(methoxyimino)methyl]phenyl}methyl)-4-{[(methoxycarbonyl)amino]amino}pyridin-2-yl]sulfanyl}propanoate]
- inhibitory activity in the CASA sperm motility assay (human sperm motility): inhibitory activity

- inhibitory activity in the epitope ALPHA assay (recombinant human EPPIN): inhibitory activity
Molecule: CO/N=C/c1ccc(Cc2nc(NNC(=O)OC)cc(SCCC(=O)OC)n2)cc1O [EP102, methyl 3-{[2-({3-hydroxy-4-[(1E)-(methoxyimino)methyl]phenyl}methyl)-6-{[(methoxycarbonyl)amino]amino}pyrimidin-4-yl]sulfanyl}propanoate]
- inhibitory activity in the CASA sperm motility assay (human sperm motility): inhibitory activity

- inhibitory activity in the epitope ALPHA assay (recombinant human EPPIN): inhibitory activity
Molecule: CO/N=C/c1ccc(Cc2cc(NNC(=O)OC)cc(SCCC(=O)O)n2)cc1O [EP104, 3-{[6-({3-hydroxy-4-[(1E)-(methoxyimino)methyl]phenyl}methyl)-4-{[(methoxycarbonyl)amino]amino}pyridin-2-yl]sulfanyl}propanoic acid]
- inhibitory activity in the CASA sperm motility assay (human sperm motility): inhibitory activity

- EC50 (human sperm motility; inhibiting sperm motility and impairing proper function, read-out: calculated EC50 value for inhibiting sperm motility): 8.8 µM
B1: SEMG1: semenogelin, seminal vesicle protein that binds EPPIN on sperm and inhibits progressive motility (protein, UniProt P04279 24-462, looked up)
Semenogelin-1: QKGGSKGRLPSEFSQFPHGQKGQHYSGQKGKQQTESKGSFSIQYTYHVDANDHDQSRKSQQYDLNALHKTTKSQRHLGGSQQLLHNKQEGRDHDKSKGHFHRVVIHHKGGKAHRGTQNPSQDQGNSPSGKGISSQYSNTEERLWVHGLSKEQTSVSGAQKGRKQGGSQSSYVLQTEELVANKQQRETKNSHQNKGHYQNVVEVREEHSSKVQTSLCPAHQDKLQHGSKDIFSTQDELLVYNKNQHQTKNLNQDQQHGRKANKISYQSSSTEERRLHYGENGVQKDVSQSSIYSQTEEKAQGKSQKQITIPSQEQEHSQKANKISYQSSSTEERRLHYGENGVQKDVSQRSIYSQTEKLVAGKSQIQAPNPKQEPWHGENAKGESGQSTNREQDLLSHEQKGRHQHGSHGGLDIVIIEQEDDSDRHLAQHLNNDRNPLFT
